Source: patent US12180193B2, “Accelerating fibrosarcoma protein degrading compounds and associated methods of use” (Arvinas Operations, Inc., priority 2020, dated 2024)

Assays:
[1] = target: T1, BRAF V600E (Homo sapiens, UniProt P15056, V600E); test: Cellular assay of target protein degradation, T-Rex 293 cells stably transfected with HA-BRAF_V600E (HA immunofluorescence, high content imaging); type: cell-based; details: T-Rex 293 HA-BRAF V600E; for DC50: half maximal degradation, read-out: BRaf V600E DC50; for Dmax: maximum degradation observed
T1 construct: expressed in transfected cells
T1 sequence (P15056 whole entry V600E): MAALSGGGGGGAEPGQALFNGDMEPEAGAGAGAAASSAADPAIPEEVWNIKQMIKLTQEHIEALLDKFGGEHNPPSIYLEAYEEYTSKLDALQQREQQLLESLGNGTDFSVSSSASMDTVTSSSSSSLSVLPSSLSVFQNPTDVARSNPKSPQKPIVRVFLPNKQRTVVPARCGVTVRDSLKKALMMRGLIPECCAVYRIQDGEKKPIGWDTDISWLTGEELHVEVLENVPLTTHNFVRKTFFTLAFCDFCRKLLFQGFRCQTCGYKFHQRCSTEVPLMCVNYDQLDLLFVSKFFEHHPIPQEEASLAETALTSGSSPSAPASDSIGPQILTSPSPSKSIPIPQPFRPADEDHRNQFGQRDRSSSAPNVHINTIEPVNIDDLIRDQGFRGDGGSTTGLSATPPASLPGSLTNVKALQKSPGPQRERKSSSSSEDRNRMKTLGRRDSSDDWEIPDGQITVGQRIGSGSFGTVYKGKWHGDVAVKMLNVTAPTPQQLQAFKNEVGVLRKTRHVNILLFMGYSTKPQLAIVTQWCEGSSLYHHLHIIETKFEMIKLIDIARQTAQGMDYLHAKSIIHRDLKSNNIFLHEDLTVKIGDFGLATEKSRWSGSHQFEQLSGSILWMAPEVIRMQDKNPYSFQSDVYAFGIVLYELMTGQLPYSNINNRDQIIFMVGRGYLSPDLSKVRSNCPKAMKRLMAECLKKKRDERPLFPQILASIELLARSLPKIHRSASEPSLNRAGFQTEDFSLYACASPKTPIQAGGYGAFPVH
How it was run: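 24 h compound exposure, 1 μM–0.1 nM final, 0.1% DMSO, 37 °C; cells induced with 1 ng/mL doxycycline. PFA fix, Triton permeabilize, anti-HA overnight 4 °C, Hoechst/phalloidin counterstain. Output: DC50, Dmax as % control.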

[2] = target: T2, BRAF G466V (Homo sapiens, UniProt P15056, G466V); test: Cellular assay of target protein degradation, T-Rex 293 cells stably transfected with HA-BRAF G466V (HA immunofluorescence, high content imaging); type: cell-based; details: T-Rex 293 HA-BRAF G466V; for DC50: half maximal degradation, read-out: BRaf G466V DC50; for Dmax: maximum degradation observed
T2 construct: expressed in transfected cells
T2 sequence (P15056 whole entry G466V): as the sequence (P15056 whole entry V600E) above, with G466V, E600V counted along it
How it was run: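 24 h compound, 30 nM–3 pM final, 0.1% DMSO, 37° C; HA-BRAF G466V induced with 0.75 ng/mL doxycycline. PFA fix, Triton perm, anti-HA + Alexa fluor secondary, Hoechst/phalloidin counterstain; imaging. DC50, Dmax (% of control).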

DC50 [1]	Dmax [1]	DC50 [2]	Dmax [2]	SMILES
5 to 50 nM	< 35%	1 to 10 nM	35 to 70%	O=C1CCC(N2Cc3cc(N4CC(CN5CCN(C6CCN(c7ccc(-c8cnc9[nH]cc(C(=O)c%10c(F)ccc(NS(=O)(=O)N%11CC[C@@H](F)C%11)c%10F)c9c8)cc7)CC6)CC5)C4)ccc3C2=O)C(=O)N1 (stereo partly drawn) [Compound 209, (3R)—N-{3-[5-(4-{4-[4-({1-[2-(2,6-dioxopiperidin-3-yl)-1-oxo-2,3-dihydro-1H-isoindol-5-yl]azetidin-3-yl}methyl)piperazin-1-yl]piperidin-1-yl}phenyl)-1H-pyrrolo[2,3-b]pyridine-3-carbonyl]-2,4-difluorophenyl}-3-fluoropyrrolidine-1-sulfonamide]
50 to 500 nM	35 to 70%	1 to 10 nM	35 to 70%	O=C1CC[C@H](N2Cc3cc(N4CC(CN5CCN(C6(c7ncc(-c8cnc9[nH]cc(C(=O)c%10c(F)ccc(NS(=O)(=O)N%11CC[C@@H](F)C%11)c%10F)c9c8)cn7)CC6)CC5)C4)ccc3C2=O)C(=O)N1 [Compound 202, (3R)-N-(3-{5-[2-(1-{4-[(1-{2-[(3S)-2,6-dioxopiperidin-3-yl]-1-oxo-2,3-dihydro-1H-isoindol-5-yl}azetidin-3-yl)methyl]piperazin-1-yl}cyclopropyl)pyrimidin-5-yl]-1H-pyrrolo[2,3-b]pyridine-3-carbonyl}-2,4-difluorophenyl)-3-fluoropyrrolidine-1-sulfonamide]
5 to 50 nM	35 to 70%	1 to 10 nM	> 70%	O=C1CCC(N2Cc3cc(C4CCN(CC5CCN(c6cnc(-c7cnc8[nH]cc(C(=O)c9c(F)ccc(NS(=O)(=O)N%10CC[C@@H](F)C%10)c9F)c8c7)nc6)CC5)CC4)ccc3C2=O)C(=O)N1 (stereo partly drawn) [Compound 215, (3R)-N-[3-(5-{5-[4-({4-[2-(2,6-dioxopiperidin-3-yl)-1-oxo-2,3-dihydro-1H-isoindol-5-yl]piperidin-1-yl}methyl)piperidin-1-yl]pyrimidin-2-yl}-1H-pyrrolo[2,3-b]pyridine-3-carbonyl)-2,4-difluorophenyl]-3-fluoropyrrolidine-1-sulfonamide]
> 500 nM	35 to 70%		< 35%	O=C1CCC(N2Cc3cc(O[C@H]4C[C@]5(COCCN5CC5CCN(c6ccc(-c7cnc8[nH]cc(C(=O)c9c(F)ccc(NS(=O)(=O)N%10CC[C@@H](F)C%10)c9F)c8c7)cc6)CC5)C4)ccc3C2=O)C(=O)N1 (stereo partly drawn) [Compound 14, (3R)-N-(2,4-difluoro-3-{5-[4-(4-{[(2s,4s)-2-{[2-(2,6-dioxopiperidin-3-yl)-1-oxo-2,3-dihydro-1H-isoindol-5-yl]oxy}-8-oxa-5-azaspiro[3.5]nonan-5-yl]methyl}piperidin-1-yl)phenyl]-1H-pyrrolo[2,3-b]pyridine-3-carbonyl}phenyl)-3-fluoropyrrolidine-1-sulfonamide]
5 to 50 nM	35 to 70%	< 1 nM	35 to 70%	O=C1CCC(N2Cc3cc(C4CCN(CCCc5ccc(-c6cnc7[nH]cc(C(=O)c8c(F)ccc(NS(=O)(=O)N9CC[C@@H](F)C9)c8F)c7c6)cc5)CC4)ccc3C2=O)C(=O)N1 (stereo partly drawn) [Compound 49, (3R)-N-(3-{5-[4-(3-{4-[2-(2,6-dioxopiperidin-3-yl)-1-oxo-2,3-dihydro-1H-isoindol-5-yl]piperidin-1-yl}propyl)phenyl]-1H-pyrrolo[2,3-b]pyridine-3-carbonyl}-2,4-difluorophenyl)-3-fluoropyrrolidine-1-sulfonamide]
50 to 500 nM	< 35%	1 to 10 nM	< 35%	O=C1CC[C@@H](NC(=O)c2ccc(N3CC4(CN(CC5CCN(c6ccc(-c7cnc8[nH]cc(C(=O)c9c(F)ccc(NS(=O)(=O)N%10CC[C@@H](F)C%10)c9F)c8c7)cc6)CC5)C4)C3)cn2)C(=O)N1 [Compound 346, 5-(6-{[1-(4-{3-[2,6-difluoro-3-({[(3R)-3-fluoropyrrolidin-1-yl]sulfonyl}amino)benzoyl]-1H-pyrrolo[2,3-b]pyridin-5-yl}phenyl)piperidin-4-yl]methyl}-2,6-diazaspiro[3.3]heptan-2-yl)-N-[(3R)-2,6-dioxopiperidin-3-yl]pyridine-2-carboxamide]
5 to 50 nM	35 to 70%	1 to 10 nM	> 70%	CN(CC(F)F)S(=O)(=O)Nc1ccc(F)c(C(=O)c2c[nH]c3ncc(-c4ccc(N5CCC(CN6CCC(c7ccc8c(c7)CN(C7CCC(=O)NC7=O)C8=O)CC6)CC5)cc4)cc23)c1F (centres unmarked) [Compound 213, 3-(5-{1-[(1-{4-[3-(3-{[(2,2-difluoroethyl)(methyl)sulfamoyl]amino}-2,6-difluorobenzoyl)-1H-pyrrolo[2,3-b]pyridin-5-yl]phenyl}piperidin-4-yl)methyl]piperidin-4-yl}-1-oxo-2,3-dihydro-1H-isoindol-2-yl) piperidine-2,6-dione]
5 to 50 nM	> 70%	1 to 10 nM	35 to 70%	COc1cc(N2CC3(C2)CN(CC2CCN(c4ccc(-c5cnc6[nH]cc(C(=O)c7c(F)ccc(NS(=O)(=O)N8CC[C@@H](F)C8)c7F)c6c5)cc4)CC2)[C@H]3C)cc2c1C(=O)N(C1CCC(=O)NC1=O)C2 (stereo partly drawn) [Compound 12, (3R)-N-(3-{5-[4-(4-{[(1S)-6-[2-(2,6-dioxopiperidin-3-yl)-7-methoxy-1-oxo-2,3-dihydro-1H-isoindol-5-yl]-1-methyl-2,6-diazaspiro[3.3]heptan-2-yl]methyl}piperidin-1-yl)phenyl]-1H-pyrrolo[2,3-b]pyridine-3-carbonyl}-2,4-difluorophenyl)-3-fluoropyrrolidine-1-sulfonamide]
50 to 500 nM	35 to 70%	1 to 10 nM	35 to 70%	O=C1CC[C@H](N2Cc3cc(N4CCC(OC5CCN(c6ccc(-c7cnc8[nH]cc(C(=O)c9c(F)ccc(NS(=O)(=O)N%10CC[C@@H](F)C%10)c9F)c8c7)cc6)CC5)CC4)ccc3C2=O)C(=O)N1 [Compound 34, (3R)-N-{3-[5-(4-{4-[(1-{2-[(3S)-2,6-dioxopiperidin-3-yl]-1-oxo-2,3-dihydro-1H-isoindol-5-yl}piperidin-4-yl)oxy]piperidin-1-yl}phenyl)-1H-pyrrolo [2,3-b]pyridine-3-carbonyl]-2,4-difluorophenyl}-3-fluoropyrrolidine-1-sulfonamide]
< 5 nM	< 35%	1 to 10 nM	> 70%	O=C1CCC(N2Cc3cc(N4CCC(CN5CCC6(CCN(c7ccc(-c8cnc9[nH]cc(C(=O)c%10c(F)ccc(NS(=O)(=O)N%11CC[C@@H](F)C%11)c%10F)c9c8)cc7F)CC6)C5)CC4)ccc3C2=O)C(=O)N1 (stereo partly drawn) [Compound 104, (3R)-N-[3-(5-{4-[2-({1-[2-(2,6-dioxopiperidin-3-yl)-1-oxo-2,3-dihydro-1H-isoindol-5-yl]piperidin-4-yl}methyl)-2,8-diazaspiro [4.5]decan-8-yl]-3-fluorophenyl}-1H-pyrrolo [2,3-b]pyridine-3-carbonyl)-2,4-difluorophenyl]-3-fluoropyrrolidine-1-sulfonamide]
< 5 nM	35 to 70%	1 to 10 nM	> 70%	O=C1CCC(N2Cc3cc(C4CCN(CC5CCN(c6ccc(-c7cnc8[nH]cc(C(=O)c9c(F)ccc(NS(=O)(=O)N%10CCC(F)(F)C%10)c9F)c8c7)cc6)CC5)CC4)ccc3C2=O)C(=O)N1 (centres unmarked) [Compound 190, N-[3-(5-{4-[4-({4-[2-(2,6-dioxopiperidin-3-yl)-1-oxo-2,3-dihydro-1H-isoindol-5-yl]piperidin-1-yl}methyl)piperidin-1-yl]phenyl}-1H-pyrrolo[2,3-b]pyridine-3-carbonyl)-2,4-difluorophenyl]-3,3-difluoropyrrolidine-1-sulfonamide]
50 to 500 nM	< 35%	> 30 nM		O=C1CCN(c2ccc(N3CCN(CCc4ccc(-c5cnc6[nH]cc(C(=O)c7c(F)ccc(NS(=O)(=O)N8CC[C@@H](F)C8)c7F)c6c5)cc4)CC3)cc2F)C(=O)N1 [Compound 136, (3R)-N-(3-{5-[4-(2-{4-[4-(2,4-dioxo-1,3-diazinan-1-yl)-3-fluorophenyl]piperazin-1-yl}ethyl)phenyl]-1H-pyrrolo[2,3-b]pyridine-3-carbonyl}-2,4-difluorophenyl)-3-fluoropyrrolidine-1-sulfonamide]
5 to 50 nM	35 to 70%	1 to 10 nM	> 70%	C[C@H]1C[C@@H](CN2CCC(c3ccc4c(c3)CN([C@H]3CCC(=O)NC3=O)C4=O)CC2)CCN1c1ccc(-c2cnc3[nH]cc(C(=O)c4c(F)ccc(NS(=O)(=O)N5CC[C@@H](F)C5)c4F)c3c2)cc1 [Compound 239, (3R)-N-[3-(5-{4-[(2S,4S)-4-[(4-{2-[(3S)-2,6-dioxopiperidin-3-yl]-1-oxo-2,3-dihydro-1H-isoindol-5-yl}piperidin-1-yl)methyl]-2-methylpiperidin-1-yl]phenyl}-1H-pyrrolo[2,3-b]pyridine-3-carbonyl)-2,4-difluorophenyl]-3-fluoropyrrolidine-1-sulfonamide]
> 500 nM		1 to 10 nM	< 35%	O=C1CC[C@@H](NC(=O)N2CCCc3c(N4CC5(CN(CCc6ccc(-c7cnc8[nH]cc(C(=O)c9c(F)ccc(NS(=O)(=O)N%10CC[C@@H](F)C%10)c9F)c8c7)cc6)C5)C4)ccnc32)C(=O)N1 [Compound 380, 5-{6-[2-(4-{3-[2,6-difluoro-3-({[(3R)-3-fluoropyrrolidin-1-yl]sulfonyl}amino)benzoyl]-1H-pyrrolo[2,3-b]pyridin-5-yl}phenyl)ethyl]-2,6-diazaspiro[3.3]heptan-2-yl}-N-[(3R)-2,6-dioxopiperidin-3-yl]-1,2,3,4-tetrahydro-1,8-naphthyridine-1-carboxamide]
